# According to patent publication US7678791B2, “Nitroheteroaryl-containing rifamycin derivatives” (Cumbre IP Ventures, L.P., priority 2006, dated 2010):
# Read-outs that look alike come from different tables or passages of the source.
# Assays:
# Type in all cases: cell-based
# [1] = tested on: Mycobacterium tuberculosis H37Rv; assay: MIC, M. tuberculosis
# [2] = tested on: Escherichia coli ATCC 25922; assay: MIC by microbroth dilution, E. coli
# Description: (§1) Methods for dilution antimicrobial susceptibility tests for bacteria that grow aerobically, 5th ed. M7-A5. National Committee for Clinical Laboratory Standards, Wayne, Pa.).
# [3] = tested on: Helicobacter pylori CB1572 (Rif-resistant, rpoB L525I, D530N); assay: microbe, parasite or virus in culture; conditions: read-out: MIC H. pylori CB1572 (Rif-resistant)
# Description: as §1
# [4] = tested on: Clostridium difficile CB-1620; assay: MIC, C. difficile; conditions: Clostridioides difficile, CB1620
# [5] = tested on: Staphylococcus aureus ATCC 29213; assay: MIC by microbroth dilution, S. aureus
# Description: as §1
# [6] = tested on: Haemophilus influenzae ATCC 10211; assay: MIC by microbroth dilution, H. influenzae
# Description: as §1
# [7] = tested on: Bacteroides fragilis CB-1621; assay: MIC, B. fragilis; conditions: CB1621
# [8] = tested on: Helicobacter pylori ATCC 700392; assay: MIC by agar dilution, H. pylori
# Description: as §1
# [9] = ATCC25922, read-out: MIC E. coli ATCC# 25922
# [10] = ATCC29213, read-out: MIC S. aureus ATCC# 29213
# [11] = ATCC700392, read-out: MIC H. pylori ATCC# 700392
SMILES,MIC [1],"MIC [2, 9]",MIC [3],MIC [4],"MIC [5, 10]","MIC ([6]; ATCC10211, read-out: MIC H. influenzae ATCC# 10211)",MIC [7],"MIC [8, 11]","MIC ([2]; ATCC25922, microbroth dilution, read-out: MIC E. coli ATCC# 25922)","MIC ([5]; ATCC29213, microbroth dilution, read-out: MIC S. aureus ATCC# 29213)","MIC ([6]; ATCC10211, microbroth dilution, read-out: MIC H. influenzae ATCC# 10211)","MIC ([8]; ATCC700392, agar dilution, read-out: MIC H. pylori ATCC# 700392)"
"CO[C@H]1/C=C/O[C@@]2(C)Oc3c(C)c(O)c4c(c3C2=O)C2=NC3(CCN(CCn5c([N+](=O)[O-])cnc5C)CC3)NC2=C(NC(=O)/C(C)=C\C=C\[C@H](C)[C@H](O)[C@@H](C)[C@@H](O)[C@@H](C)[C@H](OC(C)=O)[C@@H]1C)C4=O [Example 1, 4-Deoxy-3,4-[2-spiro-[1-[2-(2-methyl-5-nitro-imidazol-1-yl)ethyl]-piperidin-4-yl]]-(1H)-imidazo-(2,5-dihydro)rifamycin S]",0.016 µg/mL,16 µg/mL,0.5 µg/mL,0.00025 µg/mL,0.03 µg/mL,1 µg/mL,0.03 µg/mL,≤ 0.03 µg/mL,,,,
"CO[C@H]1/C=C/O[C@@]2(C)Oc3c(C)c(O)c4c(O)c(c(/C=N/N5CCN(CCn6c([N+](=O)[O-])cnc6C)CC5)c(O)c4c3C2=O)NC(=O)/C(C)=C\C=C\[C@H](C)[C@H](O)[C@@H](C)[C@@H](O)[C@@H](C)[C@H](OC(C)=O)[C@@H]1C [Example 3, 3-[[[4-[2-(2-methyl-5-nitro-imidazol-1-yl)ethyl]-1-piperazinyl]imino]methyl]rifamycin SV]",,,2 µg/mL,,0.03 µg/mL,,,0.5 µg/mL,,,,
"CO[C@H]1/C=C/O[C@@]2(C)Oc3c(C)c(O)c4c(=O)c(c5oc6cc(N7CCN(CCn8c([N+](=O)[O-])cnc8C)CC7)cc(O)c6nc-5c4c3C2=O)NC(=O)/C(C)=C\C=C\[C@H](C)[C@H](O)[C@@H](C)[C@@H](O)[C@@H](C)[C@H](OC(C)=O)[C@@H]1C [Example 4, 3′-Hydroxy-5′-[4-[2-(2-methyl-5-nitro-imidazol-1-yl)ethyl]-1-piperazinyl]benzoxazinorifamycin]",,> 8 µg/mL,1 µg/mL,,< 0.004 µg/mL,,,≤ 0.03 µg/mL,,,,
"CO[C@H]1/C=C/O[C@@]2(C)Oc3c(C)c(O)c4c(O)c(c(/C=N/N5CCN(C)CC5)c(O)c4c3C2=O)NC(=O)/C(C)=C\C=C\[C@H](C)[C@H](O)[C@@H](C)[C@@H](O)[C@@H](C)[C@H](OC(C)=O)[C@@H]1C [rifampin, reference compound]",,,> 32 µg/mL,0.001 µg/mL,,,0.06 µg/mL,,8 µg/mL,0.008 µg/mL,0.24 µg/mL,0.12 µg/mL
